From PMC9841524, “Structure-Based Rational Design of Small α-Helical Peptides with Broad-Spectrum Activity against Multidrug-Resistant Pathogens” (Journal of Medicinal Chemistry, 2022)
Where two headings read alike, the source gives them in different places. Where no end group is shown, it is not given here.

Columns and labels:
S. aureus (ATCC 29213) = experiment: MIC, standard microtiter dilution (CLSI); assay type: cell-based; details: broth microdilution (CLSI), CAMHB, 37 °C, 24 h
How it was run: (§1)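 Inoculum 10^6 CFU/mL in CAMHB against 2-fold peptide series; salt variants used 150 mM NaCl, 4.5 mM KCl, 6 mM NH4Cl, 1 mM MgCl2, 2 mM CaCl2, or 25% FBS.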

[1] = test system: Bacillus cereus (ATCC 13061)
How it was run: as §1

E. faecalis (ATCC 29212) = test system: E. faecalis (ATCC 29212)
How it was run: as §1

[2] = test system: S. pneumoniae (ATCC 700677); details: Gram-positive, multi-drug resistant (penicillin, tetracycline, erythromycin); CAMHB + 2.5% lysed horse blood, 37 °C, 24 h; highest MIC of three independent experiments in triplicate
How it was run: as §1

E. faecalis (ATCC 51575) = experiment: microbe, parasite or virus in culture; details: Gram-positive, vancomycin-resistant; CLSI microdilution, CAMHB, 37 °C, 24 h; highest MIC of three independent experiments in triplicate
Procedure: (§2) Description of the characteristics and growth conditions of various bacterial strains used in the study are provided in the Supporting Information (Table S3). Antibacterial susceptibility testing was carried out using a standard microtiter dilution method recommended by the clinical and laboratory standard institute (CLSI) and measured as a minimum inhibitory concentration (MIC), the lowest peptide concentration that inhibited bacterial growth. Briefly, the overnight grown cultures in the recommended broth for each bacterial strain were diluted in cation-adjusted Mueller Hinton Broth (CAMHB) to give an inoculum of 10^6 colony-forming units (CFU)/mL. A 2-fold serially diluted test peptide solution (100 μL) was added to the microtiter plates. After adding bacterial suspension (100 μL), the plates were incubated at 37 °C for 24 h, and the MICs were determined. The same protocol was used to determine the MICs in the presence of salts and serum except using the media supplemented with various cationic salts (150 mM NaCl, 4.5 mM KCl, 6 mM NH4Cl, 1 mM MgCl2, and 2 mM CaCl2) or 25% FBS. The data was acquired from three independent assays performed in triplicate.
(§3) The bacterial strains employed in this study were obtained from the American Type Culture Collection (ATCC). Each strain was propagated as recommended by the ATCC, and each strain was stored as a frozen glycerol stock at -80°C. A bacterial colony was grown on the appropriate agar as indicated in Table S1 and was used to inoculate the appropriate broth. The culture was incubated at the appropriate conditions, as mentioned in Table S1. Following the incubation, the culture was diluted to an optical density 625 nm (OD625) of 0.1 in cation adjusted Mueller Hinton Broth (CAMHB), which is equivalent to 1 × 10^8 CFU/mL. The culture was further diluted to 1 × 10^6 CFU/mL, which was used to conduct the MIC determination assay. For the S. pneumoniae strains, CAMHB + 2.5% lysed horse blood was required for the assay. The strains with their […]
(§4) Table S3. Description of the characteristics and growth conditions of various bacterial strains

E. faecium (ATCC 27270) = experiment: microbe, parasite or virus in culture
Procedure: as §2, §3, §4

E. faecium (ATCC 700221) = experiment: microbe, parasite or virus in culture; details: Gram-positive, vancomycin-resistant; CLSI microdilution, CAMHB, 37 °C, 24 h; highest MIC of three independent experiments in triplicate
Procedure: as §2, §3, §4

MRSA (ATCC BAA-1556) = experiment: Flow cytometric analysis of PI-stained cells; assay type: cell-based, methicillin-resistant S. aureus; details: flow cytometry; for PI fluorescence of MRSA cells at MIC: 1 h treatment, 10^7 CFU/mL
Procedure: The flow cytometric analysis was performed by using MRSA (ATCC BAA-1556) and E. coli (ATCC BAA-2452) cultures grown to the mid log phase in Mueller Hinton broth (HIMEDIA). Before treatment, bacterial cells were washed thrice with buffer (10 mM Tris, pH 7.4) and resuspended in the same buffer to obtain 10^7 CFU/mL bacterial suspensions. Test peptides (8a and 8b) and the standard antibiotics (daptomycin and polymyxin B) at MIC and 4 × MIC were incubated with bacterial suspension for 1 h. Following the treatment with test peptides, the cells were pelleted by centrifugation at 3000g for 15 min in a microcentrifuge. The supernatant was decanted, and the cells were washed with PBS several times and then incubated with PI ([…]) in the dark for 15 min at 37 °C. FACS analysis of the stained bacterial cells was performed using a FACscan flow cytometer (BD Accuri C6, BD Biosciences, California, USA), and data were analyzed by using Cell Quest software.

[3] = test system: P. aeruginosa (ATCC BAA-1744); details: Gram-negative, resistant strain (marked a; imipenem resistant in Table S3); CLSI microdilution, CAMHB, 37 °C, 24 h; highest MIC of three independent experiments in triplicate
How it was run: as §1

[4] = test system: P. aeruginosa (ATCC 27883); experiment: MIC, standard microtiter dilution (CLSI); assay type: cell-based, Pseudomonas aeruginosa; details: broth microdilution (CLSI), CAMHB, 37 °C, 24 h
How it was run: as §1

[5] = CD spectroscopy, helicity; assay type: physicochemical; parameters: key to Δ[θ]222 induced by TFE / Δ[θ]222 induced by Liposomes: mean residue molar ellipticity, mdeg cm2/(dmol × res); details: for [θ]222 mean residue molar ellipticity, TFE / [θ]222 mean residue molar ellipticity, Liposomes / [θ]222 mean residue molar ellipticity, PBS: CD at 222 nm, 25 °C; for [θ]222 mean residue molar ellipticity, TFE: aqueous buffer containing 50% TFE; for [θ]222 mean residue molar ellipticity, Liposomes / Δ[θ]222 induced by Liposomes: bacterial membrane mimicking liposomes; for [θ]222 mean residue molar ellipticity, Liposomes: peptide:lipid molar ratio 1:1.05; for [θ]222 mean residue molar ellipticity, PBS: phosphate buffer saline pH 7.0; for Δ[θ]222 induced by TFE / Δ[θ]222 induced by Liposomes: difference to PBS; for Δ[θ]222 induced by TFE: 50% TFE; for % of helicity induced by TFE: increase in molar ellipticity at 222 nm in the presence of 50% TFE; for % of helicity induced by Liposomes: increase in molar ellipticity at 222 nm in the presence of liposomes;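 for % of helicity induced by Liposomes: share of the total helicity with liposomes gained over the same peptide in PBS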;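 for % of helicity induced by TFE: share of the total helicity in TFE gained over the same peptide in PBS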
How it was run: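 Spectra recorded at 25 °C, 1 mm cell, 190–260 nm, averaged over three scans in 10 mM sodium phosphate (pH 7.2), 50% TFE, or bacterial-mimic liposomes (75 μM lipid), baseline-subtracted. Mean residue molar ellipticity at 222 nm derived; % helicity induced is the percentage increase at 222 nm in TFE or liposomes.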

[6] = 10^6 CFU/mL, highest MIC of three independent experiments in triplicate
[7] = Gram-positive, CLSI microdilution, CAMHB, 37 °C, 24 h, highest MIC of three independent experiments in triplicate

Row | Compound | MIC, S. aureus (ATCC 29213) (S. aureus (ATCC 29213); [6]) | MIC, S. aureus (ATCC 29213) (S. aureus (ATCC 29213); value in parentheses (μM)) | MIC, Bacillus cereus (ATCC 13061) [1, 7] | MIC, E. faecalis (ATCC 29212) (E. faecalis (ATCC 29212); [7]) | MIC, S. pneumoniae (ATCC 700677) [2] | MIC, E. faecalis (ATCC 51575) (E. faecalis (ATCC 51575)) | MIC, E. faecium (ATCC 700221) (E. faecium (ATCC 700221)) | MIC, Bacillus cereus (ATCC 13061) ([1]; ATCC 13061, 24 h) | MIC, P. aeruginosa (ATCC BAA-1744) [3] | MIC, P. aeruginosa (ATCC 27883) [4, 6] | MIC, P. aeruginosa (ATCC 27883) ([4]; value in parentheses (μM)) | MIC, E. faecium (ATCC 27270) (E. faecium (ATCC 27270); ATCC 27270, 24 h) | [θ]222 mean residue molar ellipticity, TFE [5] | [θ]222 mean residue molar ellipticity, Liposomes [5] | [θ]222 mean residue molar ellipticity, PBS [5] | Δ[θ]222 induced by TFE [5] | Δ[θ]222 induced by Liposomes [5] | % of helicity induced by TFE [5] | % of helicity induced by Liposomes [5] | PI fluorescence of MRSA cells at MIC (MRSA (ATCC BAA-1556)) | also measured
1 | CCCCCCCCCC(=O)N[C@@H](Cc1c[nH]c2ccccc12)C(=O)N[C@H](CC(N)=O)C(=O)N[C@@H](CC(=O)O)C(=O)N[C@@H]1C(=O)NCC(=O)N[C@@H](CCCN)C(=O)N[C@@H](CC(=O)O)C(=O)N[C@H](C)C(=O)N[C@@H](CC(=O)O)C(=O)NCC(=O)N[C@H](CO)C(=O)N[C@@H]([C@H](C)CC(=O)O)C(=O)N[C@@H](CC(=O)c2ccccc2N)C(=O)O[C@@H]1C [daptomycin, reference compound] | 0.7 µg/mL | 0.43 µM | 1.5 µg/mL | 6.2 µg/mL | 12.5 µg/mL | 12.5 µg/mL | 6.2 µg/mL |  |  |  |  |  |  |  |  |  |  |  |  |  | MIC, E. faecium (ATCC 27270) (E. faecium (ATCC 27270); [7]): 1.5 µg/mL; PI-stained population of MRSA cells (MRSA (ATCC BAA-1556); MIC and 4 × MIC, 1 h): did not significantly increase
2 | KWIKKWIKWWKK-NH2 [7b] | 6.2 µg/mL | 3.53 µM |  | 12.5 µg/mL | 25 µg/mL | 6.2 µg/mL | 6.2 µg/mL | 6.2 µg/mL | 12.5 µg/mL | 6.2 µg/mL | 3.53 µM | 6.2 µg/mL | -10800 mdeg cm2/(dmol × res) | -12345 mdeg cm2/(dmol × res) | -3016 mdeg cm2/(dmol × res) | -7784 | -9328 | 72.06% | 75.56% |  | 
3 | KWLKKWLKWWKK-NH2 [8b] | 3.1 µg/mL | 1.76 µM |  |  | 12.5 µg/mL | 6.2 µg/mL | 3.1 µg/mL | 3.1 µg/mL | 6.2 µg/mL | 6.2 µg/mL | 3.53 µM | 3.1 µg/mL | -15887 mdeg cm2/(dmol × res) | -19313 mdeg cm2/(dmol × res) | -6387 mdeg cm2/(dmol × res) | -9499 | -12926 | 59.79% | 66.92% | 42.1% | MIC, E. faecalis (ATCC 29212) (E. faecalis (ATCC 29212); ATCC 29212, 24 h): 6.2 µg/mL
4 | RWIRRWIRWWRR-NH2 [7a] | 6.2 µg/mL | 3.22 µM | 12.5 µg/mL | 12.5 µg/mL | 25 µg/mL | 12.5 µg/mL | 6.2 µg/mL |  | 12.5 µg/mL | 6.2 µg/mL | 3.22 µM | 6.2 µg/mL | -8205 mdeg cm2/(dmol × res) | -11307 mdeg cm2/(dmol × res) | -2471 mdeg cm2/(dmol × res) | -5734 | -8836 | 69.88% | 78.14% |  | 
5 | RWLRRWLRWWRR-NH2 [8a] | 6.2 µg/mL | 3.22 µM |  | 12.5 µg/mL | 12.5 µg/mL | 6.2 µg/mL | 3.1 µg/mL | 6.2 µg/mL | 12.5 µg/mL | 12.5 µg/mL | 6.49 µM | 6.2 µg/mL | -10811 mdeg cm2/(dmol × res) | -15616 mdeg cm2/(dmol × res) | -4794 mdeg cm2/(dmol × res) | -6017 | -10822 | 55.65% | 69.30% | 34.2% | 
